According to patent publication US7973024B2, “24-sulfoximine vitamin D3 compounds” (Cyctochroma Inc., priority 2002, dated 2011):

How the values were obtained:
[1] = tested on: normal human epidermal keratinocytes (NHEK); test: Human epidermal keratinocyte proliferation assay; assay type: cell-based; conditions: together with calcitriol, three days, [3H]-thymidine 18 h
Procedure: 1. HEK Cell Media • Supplemented KGM media with additional reagents provided in the bullet kit as per supplier's instructions. • Added calcium chloride to final concentration of 0.3 mM.
2. Calcitriol Dilutions • Stock: Calcitriol (1 mM)
3. Substrate Dilutions • Stock: substrate (0.1 mM)
1. Cell Culture • Thawed one vial of HEK cells containing at least 500 K, and divided into 5 25 cm^2 flasks with 5 ml HEK cell media. 24 h later, removed media and replenished with 5 ml fresh media. Changed media again 48 h later.
2. Preparation of Cell Suspension • On the day of the assay, washed the monolayer of HEK cells once with 1×PBS buffer (provided in reagent pack) and then trypsinized for 5 min at 37° C. Added trypsin neutralizing solution (provided in reagent pack). Collected cells into tube, centrifuged cells (500×g, 5 min) and resuspended in HEK cell media. Counted cells and adjusted density to 150,000 cells/ml. Diluted cells further 1:30 with HEK cell media.
2. Cell Plating • Added 150 μl of cell suspension to appropriately labelled wells of a 96-well plate. Incubated plate for 48 h at 37° C. in a humidified atmosphere containing 5% CO2 for adherence of cells to wells.
3. […]
4. Cell Harvesting and Counting • Added 0.2 μCi/well of [^3H]-thymidine in 20 μl of HEK cell media to each well. Incubated plates for 18 h at 37° C. in a humidified atmosphere containing 5% CO2. Aspirated media and washed with 1×PBS. Trypsinize-cells for 30 min at 37° C. in a humidified atmosphere containing 5% CO2. Harvested cells onto filter plates using Tomtec cell harvester as per manufacturer's instructions. Added 25 μl scintillation fluid per well. Measured radioactivity using a scintillation counter. All values were normalized for background.

CYP27A1 = biological target: T1, CYP27A1 (Homo sapiens, UniProt Q02318); test: CYP27A1 enzyme assay; assay type: biochemical
T1 sequence (Q02318 34-531): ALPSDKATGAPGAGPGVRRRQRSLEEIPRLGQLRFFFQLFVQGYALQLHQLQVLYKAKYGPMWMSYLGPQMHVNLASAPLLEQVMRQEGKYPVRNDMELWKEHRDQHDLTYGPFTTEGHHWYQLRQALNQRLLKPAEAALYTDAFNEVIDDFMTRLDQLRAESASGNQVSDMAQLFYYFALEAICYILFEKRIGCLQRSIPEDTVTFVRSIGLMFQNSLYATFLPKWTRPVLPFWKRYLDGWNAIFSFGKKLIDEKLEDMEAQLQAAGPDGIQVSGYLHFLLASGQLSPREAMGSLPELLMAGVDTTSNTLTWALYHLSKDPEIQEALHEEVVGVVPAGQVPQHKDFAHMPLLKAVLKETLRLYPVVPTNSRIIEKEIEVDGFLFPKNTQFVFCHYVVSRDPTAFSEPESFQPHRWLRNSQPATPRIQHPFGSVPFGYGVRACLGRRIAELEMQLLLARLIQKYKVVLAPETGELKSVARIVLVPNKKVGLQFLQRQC

Compound: C=C1/C(=C\C=C2/CCC[C@]3(C)[C@@H]([C@H](C)CCS(=N)(=O)c4ccccc4)CC[C@@H]23)C[C@@H](O)C[C@@H]1O (single isomer, unassigned) [I(a)]
- inhibition of proliferation of normal human epidermal keratinocytes (NHEK) [1]: act to inhibit the proliferation

Compound: C=C1/C(=C\C=C2/CCC[C@]3(C)[C@@H]([C@H](C)CCS(=O)(=NC)c4ccccc4)CC[C@@H]23)C[C@@H](O)C[C@@H]1O (single isomer, unassigned) [I(e)]
- IC50 (CYP27A1): > 1000 nM
- inhibition of proliferation of normal human epidermal keratinocytes (NHEK) [1]: act to inhibit the proliferation

Compound: C[C@H](CCS(=N)(=O)c1ccccc1)[C@H]1CC[C@H]2/C(=C/C=C3C[C@@H](O)C[C@H](O)C3)CCC[C@]12C (single isomer, unassigned) [I(i), 24-Phenyl Sulfoximine 19-Nor-Vitamin-D3]
- inhibition of proliferation of normal human epidermal keratinocytes (NHEK) [1]: act to inhibit the proliferation

Compound: C=C1/C(=C\C=C2/CCC[C@]3(C)[C@@H]([C@H](C)CCS(=O)(=NC)c4ccccc4)CC[C@@H]23)C[C@@H](O)C[C@@H]1O (single isomer, unassigned) [I(g)]
- IC50 (CYP27A1): > 1000 nM
